The text below walks through data of ChEMBL document CHEMBL1201862, “PubChem BioAssay data set” (2004).

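1) Cells in 96-well plates. 2) Compound, 48 h, 5 concentrations. 3) Linear interpolation between surrounding doses. 4) Unreached endpoint = highest concentration. Here, GI50 denotes the concentration required for 50% inhibition of growth.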 The source made the active and inactive calls. Rule as the data show it: active = GI50 up to about 1.1 µM and inactive = higher.

Among the test systems are MCF7; UACC-62; HOP-62; A549; DLD-1; A498; MDA-N; NCI-H460; SF-268; HL-60; UO-31; CAKI-1; Malme-3M; UACC-257; SW-620; HCT-15; BT-549; DU-145; SK-OV-3; OVCAR-3.
Common to all, as to experiment: DTP human tumour cell line panel, 48 h

As usually defined, the GI50 is the concentration at which growth is held to half of that of the control. `COc1cc(/C=C\c2ccc(C)cc2)cc(OC)c1OC`: the 50% growth inhibitory concentration (GI50) with MCF7 was 41.5 nM (active); in the experiment with UACC-62, 8.85 nM (active); in the experiment on HOP-62, 35.5 nM (active); in the experiment with A549, 4.8 nM (active); with DLD-1 it was 2.37 nM (active); with A498, < 10 nM (active). The GI50 was 2.21 nM (active) in the experiment with MDA-N; 23.2 nM (active) in the experiment with NCI-H460; 5.05 nM (active) in the experiment on SF-268; 0.57 nM (active) with HL-60; 120 nM (active) in the experiment with UO-31; < 10 nM (active) in the experiment with CAKI-1. Moreover, the 50% growth inhibitory concentration (GI50) in the experiment with Malme-3M was 3.59 nM (active); in the experiment with UACC-257, 9.04 nM (active); in the experiment on SW-620 it was 1.92 nM (active); in the experiment on HCT-15 it was 7.46 nM; in the experiment on BT-549, 24.6 nM (active); in the experiment with DU-145, 23.4 nM (active). In addition, the concentration for 50% growth inhibition (GI50) was 1.7 nM (active) in the experiment on SK-OV-3 and 1.15 nM (active) with OVCAR-3.
